Measurements reported in patent EP0429333B1, “Process for producing oxazopyrroloquinolines, novel oxazopyrroloquinolines, and use of oxazopyrroloquinolines” (priority 1989, dated 1991).

Columns and labels:
[1] = target: T1, aldose reductase of rabbit lens (Oryctolagus cuniculus, UniProt P15122); experiment: Inhibitory effect on aldose reductase of lens; format: biochemical; conditions: read-out: Degree of inhibition for aldose reductase (%); for inhibition at 1 µM: concentration 1x10^-6 M; for inhibition at 2 µM: concentration 2x10^-6 M; for inhibition at 0.5 µM: concentration 5x10^-7 M
T1 construct: to obtain electrophoretically homogeneous aldose reductase; from tissue; host or cells: rabbit lens
Experimental: (§1) 0.05 ml of 3mM NADPH, 0.1 ml of DL-glyceraldehyde and 0.04 ml of distilled water were added to 0.8 ml of 0.1M phosphoric acid buffer (pH 6.2) and left to stand at 25°C for 3 minutes. Then, 0.01 ml of the aldose reductase solution was added thereto to start reaction and decreasing of absorbance of 340 nm was measured at 25°C with time. Amount of enzyme which consumes 1 µmole of NADPH for 1 minute was taken as 1 unit.
Enzyme activity was measured under the same conditions as in the above measurement of aldose reductase activity except that 0.04 ml of aqueous solution of inhibitory substance in various concentrations was added in place of 0.04 ml of distilled water and degree of inhibition was calculated from comparison of the enzyme activity with the enzyme activity obtained in the absence of inhibitor. (1) OPQ, (2) methyl OPQ, (3) 1-methylpropyl OPQ, (4) 2-methylpropyl OPQ, (5) 2-carbamoylethyl OPQ, (6) hydroxymethyl OPQ, (7) 2-methylthioethyl OPQ, (8) 2-carboxyethyl OPQ, (9) 4-hydroxybenzyl OPQ, (10) 1-methylethyl OPQ, and (11) benzyl OPQ were used as inhibition substances and (12) PQQ was used as control.
Lens of rabbit was homogenized with 10mM phosphoric acid buffer (pH 7.0) containing 2mM dithiothreitol in an amount of two times the volume of the lens and subjected to centrifugation. The supernatant liquid was purified by affinity chromatography, gel filtration and chromatofocusing to obtain electrophoretically homogeneous aldose reductase. Using (1) OPQ, (2) 1-methylpropyl OPQ, (3) 2-methylpropyl OPQ, (4) hydroxymethyl OPQ, and (5) 1-methylethyl OPQ as inhibition substances, degree of inhibition of these substances for aldose reductase of rabbit lens was examined in the same manner in Example 32.

[2] = target: aldose reductase of kidney (Canis lupus familiaris, UniProt A0A8I3P2L6); experiment: Inhibitory effect on aldose reductase of kidney; format: biochemical, dog; conditions: read-out: Degree of inhibition for aldose reductase (%); for inhibition at 1 µM: concentration 1x10^-6 M; for inhibition at 2 µM: concentration 2x10^-6 M; for inhibition at 5 µM: concentration 5x10^-6 M; for inhibition at 0.5 µM: concentration 5x10^-7 M; for inhibition at 10 µM: concentration 1x10^-5 M; for inhibition at 0.2 µM: concentration 2x10^-7 M
Experimental: as §1, with “Medulla of kidney of dog was homogenized with 10mM phosphoric acid buffer (pH 7.0) containing 2mM dithiothreitol in an amount of four times the volume of kidney medulla and subjected to centrifugation. The supernatant liquid was purified by affinity chromatography, gel filtration and chromatofocusing to obtain electrophoretically homogeneous aldose reductase. 0.05” for “0.05”

[3] = Solubility of the isolated compound, described in words; format: physicochemical; conditions: for solubility in water / solubility under neutral and alkaline conditions: water
[4] = system: peritoneal macrophage; experiment: Test on macrophage-chemotaxis after intraperitoneal administration; format: in vivo, C3H/He mice; conditions: for (2) Chemotaxis factor was present: 50 % zymosan treated serum, no administration 40; for (2) - (1) Chemotaxied macrophage: no administration 29; for Relative activity of group (%): no administration = 100; for (1) Chemotaxis factor was not present: total number of chemotaxied macrophages at 3 points, no administration 11
Experimental: Thirtytwo C3H/He mice (male, 7 weeks old, average body weight 20 g, supplied by Japan Charles River Co.) were divided into 4 groups (A - D) of 8 mice each.
A solution of OPQ in physiological saline of pH 7.0 was intraperitoneally administered to each mouse 7 times, namely, on the 1st day, 2nd day, 3rd day, 4th day, 5th day, 6th day and 7th day. Dosage for one administration per one mouse was as follows: That is, 0.2 ml of the solution containing 0.2 mg/ml of OPQ for group B, 0.2 ml of the solution containing 0.5 mg/ml of OPQ for group C, 0.2 ml of the solution containing 1.0 mg/ml of OPQ for group D and 0.2 ml of physiological saline for group A.
On the 8th day from starting of the experiment, the mice were anesthetized with ether and blood was drawn from carotid artery and 5 ml of cold Hanks solution was intraperitoneally injected and exudate cells for the abdominal cavity were collected. Exudate cells for the abdominal cavity of respective groups were gathered, washed three times with cold Hanks solution and suspended in RPMI medium at 5 x 10^5 cells/ml and macrophage-chemotaxis was measured. 50 % zymosan treated serum was used as chemotaxis factor and examination was conducted at three points for each sample. Number of chemotaxied macrophage was measured on microscope and 13 visual fields was examined for one point and the results are shown in Table 2. The value in the table is a total number of chemotaxied macrophages at 3 points for each sample. Preparation of Hanks solution and RPMI medium will be explained below.
Test on macrophage-chemotaxis was conducted in the same manner as in Example 36 except that hydroxymethyl OPQ was intraperitoneally administered to each mouce 3 times of the 1st day, the 2nd day and the 3rd day in the following dosage for one administration per one mouse: 0.2 ml of hydroxymethyl OPQ solution containing 0.5 mg/ml of hydroxymethyl OPQ for group B, 0.2 ml of the solution containing 1.0 mg/ml of hydroxymethyl OPQ for group C, and 0.2 ml of the solution containing 1.5 mg/ml of hydroxymethyl OPQ for group D and exudate cells for the abdominal cavity were collected on the 4th day from starting of experiment.
In Examples 36 - 40, macrophage activity was examined according to chemotaxis of peritoneal macrophage (literature 1) and activity of T cell and that of B cell were examined according to blast transformation reaction using concanavalin A and lipopolysaccharide, (LPS) as mitogen (literature 2). Literature 1: "Function of Macrophage and Method of Measurement of Function", pages 61-65 1985), edited by Educational Committee of Japan Bacteriological Society and published from Saikon Shuppan Co.) Literature 2: "New Method of Searching of Function of Lymphocytes", pages 350-355 (1987) edited by Junichi Yada and Michio Fujiwara and published from Chugai Igaku Co.

[5] = system: kidney; experiment: Toxicity to kidney determined by blood examination; format: in vivo, mice; conditions: conclusion from the blood examinations (a) and (b)
Experimental: After one day from administration, the mice were fasted (only water was given) and after lapse of 18 hours, blood was collected and serum was obtained therefrom. Glucose, urea nitrogen and creatinine in the serum were examined using FUJI Dry Chemslide (manufactured by Fuji Photo Film Co., Ltd.). […]
Thereafter, the mice were fasted (with giving only water) and after lapse of 18 hours, blood was collected and serum was obtained therefrom. Contents of glucose, urea nitrogen and creatinine in serum were obtained using FUJI Dry Chemslide. The results were shown by average value for eight mice.

[6] = 5 mg/kg mouse x 3 days intraperitoneally
[7] = 10 mg/kg mouse x 3 days intraperitoneally
[8] = 15 mg/kg mouse x 3 days intraperitoneally

| Structure (SMILES) | inhibition at 1 µM [1] | inhibition at 0.5 µM [1] | inhibition at 1 µM [2] | inhibition at 2 µM [2] | inhibition at 5 µM [2] | solubility in acetone and diethyl ether [3] | solubility in lower alcohols [3] | solubility in water [3] | solubility under neutral and alkaline conditions [3] | inhibition at 0.5 µM [2] | inhibition at 10 µM [2] | inhibition at 0.2 µM [2] | other results |
| --- | --- | --- | --- | --- | --- | --- | --- | --- | --- | --- | --- | --- | --- |
| CC(C)c1nc2c3nc(C(=O)O)cc(C(=O)O)c3c3[nH]c(C(=O)O)cc3c2o1 [1-Methylethyl OPQ, 5-(1-Methylethyl)-2,8,10-tricarboxy-1H-oxazo[5,4-h]-pyrrolo[2,3-f]quinoline] | 43.3% | 33% | 30.5% | 48.1% | 68.2% | did not dissolve | dissolved | easily soluble | very easily soluble |  |  |  | inhibition at 2 µM [1]: 51.9%; inhibition at 5 µM ([1]; concentration 5x10^-6 M): 68.4% |
| NC(=O)CCc1nc2c3nc(C(=O)O)cc(C(=O)O)c3c3[nH]c(C(=O)O)cc3c2o1 [2-Carbamoylethyl OPQ, 5-(2-Carbamoylethyl)-2,8,10-tricarboxy-1H-oxazo[5,4-h]-pyrrolo[2,3-f]quinoline] |  |  | 59.6% | 75.7% | 89.1% | did not dissolve | dissolved | easily soluble | very easily soluble | 44.7% |  |  |  |
| O=C(O)CCc1nc2c3nc(C(=O)O)cc(C(=O)O)c3c3[nH]c(C(=O)O)cc3c2o1 [2-Carboxyethyl OPQ, 5-(2-Carboxyethyl)-2,8,10-tricarboxy-1H-oxazo[5,4-h]-pyrrolo[2,3-f]quinoline] |  |  | 48% | 49.9% | 55% | did not dissolve | dissolved | easily soluble | very easily soluble | 22.5% | 58.5% |  |  |
| CC(C)Cc1nc2c3nc(C(=O)O)cc(C(=O)O)c3c3[nH]c(C(=O)O)cc3c2o1 [2-Methylpropyl OPQ, 5-(2-Methylpropyl)-2,8,10-tricarboxy-1H-oxazo[5,4-h]-pyrrolo[2,3-f]quinoline] | 69.8% | 57.2% | 63.1% |  |  | did not dissolve | dissolved | easily soluble | very easily soluble | 44.1% |  | 30.2% | inhibition at 0.1 µM ([1]; concentration 1x10^-7 M): 27%; inhibition at 0.2 µM ([1]; concentration 2x10^-7 M): 34.9% |
| O=C(O)c1cc(C(=O)O)c2c(n1)c1nc(Cc3ccc(O)cc3)oc1c1cc(C(=O)O)[nH]c12 [4-Hydroxybenzyl OPQ, 5-(4-Hydroxybenzyl)-2,8,10-tricarboxy-1H-oxazo[5,4-h]-pyrrolo[2,3-f]quinoline] |  |  | 38.6% | 49.4% | 71.3% | did not dissolve | dissolved | easily soluble | especially soluble |  | 89% |  |  |
| O=C(O)c1cc(C(=O)O)c2c(n1)c1nc(CO)oc1c1cc(C(=O)O)[nH]c12 [Hydroxymethyl OPQ, 5-Hydroxymethyl-2,8,10-tricarboxy-1H-oxazo[5,4-h]-pyrrolo[2,3-f]-quinoline] | 50.1% | 31.9% | 57.9% | 68.2% |  | did not dissolve | dissolved | easily soluble | very easily soluble | 41.1% |  | 26.7% | (2) Chemotaxis factor was present [4, 6]: 61; (2) - (1) Chemotaxied macrophage [4, 6]: 44; Relative activity of group (%) [4, 6]: 152%; (1) Chemotaxis factor was not present [4, 6]: 17; (2) Chemotaxis factor was present [4, 7]: 66; (2) - (1) Chemotaxied macrophage [4, 7]: 56; Relative activity of group (%) [4, 7]: 193%; (1) Chemotaxis factor was not present [4, 7]: 10; (2) Chemotaxis factor was present [4, 8]: 48; (2) - (1) Chemotaxied macrophage [4, 8]: 39; Relative activity of group (%) [4, 8]: 134%; (1) Chemotaxis factor was not present [4, 8]: 9; inhibition at 2 µM [1]: 60.4% |
| Cc1nc2c3nc(C(=O)O)cc(C(=O)O)c3c3[nH]c(C(=O)O)cc3c2o1 [Methyl OPQ, 5-Methyl-2,8,10-tricarboxy-1H-oxazo[5,4-h]-pyrrolo-[2,3-f]quinoline] |  |  | 92.1% |  |  | did not dissolve | dissolved | easily soluble | very easily soluble | 73.6% |  | 31.4% | inhibition at 0.1 µM ([2]; concentration 1x10^-7 M): 25% |
| O=C(O)c1cc(C(=O)O)c2c(n1)C(=O)C(=O)c1cc(C(=O)O)[nH]c1-2 [PQQ, pyrroloquinolinequinone, reference compound] |  |  |  | 17.3% | 42.8% |  |  |  |  |  | 64.4% |  | toxicity to kidney [5]: showed toxicity to kidney |
